Tests used:
P388 = assay: Inhibitory activity of compound against P388 murine cell line; range is 0.3 uM-1.6 uM; type: functional, cell-based; conditions: Mus musculus
PC-3 = assay: Cytotoxicity of compound against PC-3 cell line; type: functional, cell-based; conditions: Homo sapiens
HL-60 = assay: Cytotoxicity of compound against HL60 cell line; type: functional, cell-based; conditions: Homo sapiens
[1] = molecular target: T1, DNA topoisomerase 2-alpha (Homo sapiens, UniProt P11388); assay: Inhibitory activity of compound against human DNA topoisomerase II, alpha was evaluated by ability to interfere with the relaxation of supercoiled plasmid DNA
T1 sequence (P11388 whole entry): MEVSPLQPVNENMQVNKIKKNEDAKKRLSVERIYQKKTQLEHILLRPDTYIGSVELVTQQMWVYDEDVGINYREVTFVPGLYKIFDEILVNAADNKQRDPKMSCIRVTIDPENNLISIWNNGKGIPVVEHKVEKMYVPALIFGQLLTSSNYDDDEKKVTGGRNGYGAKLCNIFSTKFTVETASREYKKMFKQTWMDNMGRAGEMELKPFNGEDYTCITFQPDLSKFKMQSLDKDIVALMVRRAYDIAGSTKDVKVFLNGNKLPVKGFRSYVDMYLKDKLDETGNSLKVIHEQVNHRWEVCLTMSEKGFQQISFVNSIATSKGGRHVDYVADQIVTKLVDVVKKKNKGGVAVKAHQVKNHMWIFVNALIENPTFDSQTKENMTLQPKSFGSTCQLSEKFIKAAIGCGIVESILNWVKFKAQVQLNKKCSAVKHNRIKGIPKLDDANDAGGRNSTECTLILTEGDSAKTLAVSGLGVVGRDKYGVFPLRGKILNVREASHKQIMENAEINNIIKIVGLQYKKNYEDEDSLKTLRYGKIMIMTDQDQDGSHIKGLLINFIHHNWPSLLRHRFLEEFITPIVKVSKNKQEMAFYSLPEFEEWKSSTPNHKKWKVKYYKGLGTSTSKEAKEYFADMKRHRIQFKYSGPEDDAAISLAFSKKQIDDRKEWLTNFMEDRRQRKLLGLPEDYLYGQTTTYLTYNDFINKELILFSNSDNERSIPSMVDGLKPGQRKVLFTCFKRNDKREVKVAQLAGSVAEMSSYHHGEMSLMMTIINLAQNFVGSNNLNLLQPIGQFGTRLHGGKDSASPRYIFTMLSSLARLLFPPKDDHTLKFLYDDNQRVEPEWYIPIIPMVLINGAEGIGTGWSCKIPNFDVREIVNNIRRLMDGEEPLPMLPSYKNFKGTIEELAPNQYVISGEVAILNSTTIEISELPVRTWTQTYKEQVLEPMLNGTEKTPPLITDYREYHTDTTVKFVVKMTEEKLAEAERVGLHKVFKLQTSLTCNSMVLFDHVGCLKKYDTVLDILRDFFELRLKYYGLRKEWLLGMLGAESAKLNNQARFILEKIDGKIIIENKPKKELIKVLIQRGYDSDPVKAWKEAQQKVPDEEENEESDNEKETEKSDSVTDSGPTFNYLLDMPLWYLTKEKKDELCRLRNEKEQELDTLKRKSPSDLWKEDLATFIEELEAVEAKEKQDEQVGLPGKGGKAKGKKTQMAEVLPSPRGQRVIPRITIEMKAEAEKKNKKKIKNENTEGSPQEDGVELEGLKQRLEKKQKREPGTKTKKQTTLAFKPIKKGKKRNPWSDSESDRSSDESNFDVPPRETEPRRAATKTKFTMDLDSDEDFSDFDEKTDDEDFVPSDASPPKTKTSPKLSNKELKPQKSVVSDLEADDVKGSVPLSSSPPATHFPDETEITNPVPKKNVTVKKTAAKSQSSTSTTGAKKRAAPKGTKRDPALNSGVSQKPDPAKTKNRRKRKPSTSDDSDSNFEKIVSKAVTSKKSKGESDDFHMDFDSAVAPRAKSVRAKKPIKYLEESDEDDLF

[2] = molecular target: T1, DNA topoisomerase 2-alpha; assay: Inhibitory concentration against human DNA topoisomerase II, alpha mediated relaxation of pBR322
[3] = molecular target: T1, DNA topoisomerase 2-alpha; assay: Inhibitory concentration against human DNA topoisomerase II, alpha mediated relaxation of pBR322; no measurable activity

IC50 (P388) | IC50 [1] | IC50 [2] | IC50 [3] | SMILES | IC50 (PC-3) | IC50 (HL-60)
0.3 µM | 32 µM | 50 µM | – | COC(=O)c1cccc2oc(-c3cccc4oc(-c5ccccc5O)nc34)nc12 | 0.4 µM | 0.32 µM
– | – | – | > 100 µM | c1ccc(-c2nc3c(-c4nc5ccccc5o4)cccc3o2)cc1 | – | –
– | 20 µM | 20 µM | – | Oc1ccccc1-c1nc2c(-c3nc4ccccc4o3)cccc2o1 | – | –
– | – | 38 µM | – | COC(=O)c1cccc2oc(-c3cccc4oc(-c5ccccc5)nc34)nc12 | – | –

From ChEMBL document CHEMBL1137930, “Critical structural motif for the catalytic inhibition of human topoisomerase II by UK-1 and analogs” (Bioorg Med Chem Lett, 2004)
